Measured values reported in ChEMBL document CHEMBL3085738, “Synthesis, structure-activity relationship and biological evaluation of 2,4,5-trisubstituted pyrimidine CDK inhibitors as potential anti-tumour agents” (Eur J Med Chem, 2013).
Active and inactive are the calls of the source. No cut-off for these calls is given here.

biological target: Cyclin-dependent kinase 9 (Homo sapiens) (UniProt P50750); experiment: Inhibition of CDK9 in human HCT116 cells assessed as decrease in RNAP2 CTD phosphorylation at Ser5 at 10 uM after 24 hrs by Western blot analysis; type: cell-based; conditions: HCT-116
Sequence (P50750 whole entry): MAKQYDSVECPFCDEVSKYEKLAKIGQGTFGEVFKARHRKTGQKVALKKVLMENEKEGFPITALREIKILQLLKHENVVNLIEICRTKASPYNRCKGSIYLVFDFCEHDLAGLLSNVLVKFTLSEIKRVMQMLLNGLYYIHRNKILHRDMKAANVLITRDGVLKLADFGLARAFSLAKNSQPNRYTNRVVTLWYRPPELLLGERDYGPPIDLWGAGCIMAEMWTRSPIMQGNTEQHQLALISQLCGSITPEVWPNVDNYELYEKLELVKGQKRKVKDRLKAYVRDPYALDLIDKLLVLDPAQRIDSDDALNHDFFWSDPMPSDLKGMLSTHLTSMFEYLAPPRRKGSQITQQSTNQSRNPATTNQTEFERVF

| inhibition | SMILES |
| --- | --- |
| Active | CNc1nc(C)c(-c2nc(Nc3cccc(C(=O)NC4CCN(C)CC4)c3)ncc2C#N)s1 |

biological target: Cyclin-dependent kinase 1/cyclin B1 (Homo sapiens, UniProt P06493); experiment: Inhibition of CDK1/Cyclin B (unknown origin) by radiometric assay; type: protein-complex assay; conditions: read-out: Ki(app)
Sequence (P06493 whole entry): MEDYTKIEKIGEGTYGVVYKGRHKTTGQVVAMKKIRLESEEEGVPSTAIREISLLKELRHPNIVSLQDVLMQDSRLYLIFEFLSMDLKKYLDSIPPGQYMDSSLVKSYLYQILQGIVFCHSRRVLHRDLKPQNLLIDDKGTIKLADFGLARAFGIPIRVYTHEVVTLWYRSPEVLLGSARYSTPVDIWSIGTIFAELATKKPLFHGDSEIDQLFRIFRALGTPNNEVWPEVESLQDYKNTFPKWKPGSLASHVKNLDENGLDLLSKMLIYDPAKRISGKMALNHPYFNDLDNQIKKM
Sequence (P14635 whole entry, further chain): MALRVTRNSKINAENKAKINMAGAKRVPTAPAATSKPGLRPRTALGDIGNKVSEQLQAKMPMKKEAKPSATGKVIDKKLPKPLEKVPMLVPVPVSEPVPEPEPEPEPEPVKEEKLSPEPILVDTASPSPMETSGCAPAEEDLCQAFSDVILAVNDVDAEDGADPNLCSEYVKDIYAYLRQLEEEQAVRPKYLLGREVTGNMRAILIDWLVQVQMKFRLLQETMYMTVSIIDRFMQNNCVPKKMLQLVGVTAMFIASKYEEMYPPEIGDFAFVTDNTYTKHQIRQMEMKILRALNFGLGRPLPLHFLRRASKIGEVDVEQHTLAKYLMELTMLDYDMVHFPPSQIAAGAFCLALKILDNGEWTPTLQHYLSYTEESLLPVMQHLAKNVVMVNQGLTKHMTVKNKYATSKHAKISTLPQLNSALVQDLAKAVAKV

| Ki | SMILES |
| --- | --- |
| 0.064 µM | CNc1nc(C)c(-c2nc(Nc3cccc(C(=O)NC4CCN(C)CC4)c3)ncc2F)s1 |
| 0.262 µM | CNc1nc(C)c(-c2nc(Nc3cccc(C(=O)NC4CCN(C)CC4)c3)ncc2C#N)s1 |
| 0.261 µM | CNc1nc(C)c(-c2ccnc(Nc3cccc(C(=O)N4CCOCC4)c3)n2)s1 |
| 0.01 µM | CNc1nc(C)c(-c2nc(Nc3cccc(S(=O)(=O)NCCOC)c3)ncc2F)s1 |
| 0.313 µM | CNc1nc(C)c(-c2nc(Nc3cccc(C(=O)N4CCN(C)CC4)c3)ncc2C#N)s1 |
| 0.205 µM | CNc1nc(C)c(-c2nc(Nc3cccc(C(=O)N4CCOCC4)c3)ncc2C#N)s1 |
| 0.166 µM | CNc1nc(C)c(-c2nc(Nc3cccc(C(=O)N4CCN(C(C)=O)CC4)c3)ncc2C#N)s1 |
| 0.034 µM | CNc1nc(C)c(-c2nc(Nc3cccc(S(=O)(=O)NCCOC)c3)ncc2C#N)s1 |
| 0.065 µM | Cc1nc(N)sc1-c1nc(Nc2cccc(N3CCN(C)CC3)c2)ncc1F |
| 0.032 µM | CNc1nc(C)c(-c2nc(Nc3cccc(N4CCN(C)CC4)c3)ncc2F)s1 |
| 0.357 µM | CNc1nc(C)c(-c2ccnc(Nc3ccc(C)c(S(=O)(=O)N4CCOCC4)c3)n2)s1 |
| 0.101 µM | CNc1nc(C)c(-c2nc(Nc3ccc(C)c(S(=O)(=O)N4CCOCC4)c3)ncc2F)s1 |
| > 5 µM | CNc1nc(C)c(-c2nc(Nc3cc(C(=O)N4CCN(C)CC4)ccc3Cl)ncc2C#N)s1 |
| 0.019 µM | CNc1nc(C)c(-c2nc(Nc3cccc(S(C)(=O)=O)c3)ncc2C#N)s1 |
| 0.576 µM | CNc1nc(C)c(-c2nc(Nc3cccc(S(=O)(=O)N4CCN(C)CC4)c3)ncc2C#N)s1 |
| 0.043 µM | CNc1nc(C)c(-c2nc(Nc3ccc(C(=O)NC4CCN(C)CC4)cc3)ncc2C#N)s1 |
| 0.073 µM | CNc1nc(C)c(-c2nc(Nc3cccc(S(=O)(=O)N4CCOCC4)c3)ncc2C#N)s1 |
| 0.041 µM | CC(=O)N1CCN(c2cccc(Nc3ncc(F)c(-c4sc(N)nc4C)n3)c2)CC1 |

test system: MCF7; experiment: Growth inhibition of human MCF7 cells after 48 hrs by MTT assay; type: functional; conditions: MCF7, 48 h

| GI50 | SMILES |
| --- | --- |
| 0.55 µM | CNc1nc(C)c(-c2ccnc(Nc3cccc(C(=O)N4CCOCC4)c3)n2)s1 |
| 1.38 µM | CNc1nc(C)c(-c2nc(Nc3cccc(C(=O)N4CCN(C)CC4)c3)ncc2C#N)s1 |
| 0.82 µM | CNc1nc(C)c(-c2nc(Nc3cccc(C(=O)N4CCOCC4)c3)ncc2C#N)s1 |
| 1.61 µM | CNc1nc(C)c(-c2ccnc(Nc3ccc(C)c(S(=O)(=O)N4CCOCC4)c3)n2)s1 |

biological target: Cyclin-dependent kinase 9 (Homo sapiens) (UniProt P50750); experiment: Inhibition of CDK9 in human HCT116 cells assessed as downregulation of Mcl-1 protein expression at 1 to 5 uM after 24 hrs by Western blot analysis; type: cell-based; conditions: HCT-116

| inhibition | SMILES |
| --- | --- |
| Active | CNc1nc(C)c(-c2nc(Nc3cccc(C(=O)NC4CCN(C)CC4)c3)ncc2C#N)s1 |

test system: HCT-116; experiment: Growth inhibition of human HCT116 cells after 48 hrs by MTT assay; type: functional; conditions: HCT-116, 48 h

| GI50 | SMILES |
| --- | --- |
| 0.52 µM | CNc1nc(C)c(-c2ccnc(Nc3cccc(C(=O)N4CCOCC4)c3)n2)s1 |
| 0.72 µM | CNc1nc(C)c(-c2nc(Nc3cccc(C(=O)N4CCN(C)CC4)c3)ncc2C#N)s1 |
| 0.59 µM | CNc1nc(C)c(-c2nc(Nc3cccc(C(=O)N4CCOCC4)c3)ncc2C#N)s1 |
| 0.94 µM | CNc1nc(C)c(-c2ccnc(Nc3ccc(C)c(S(=O)(=O)N4CCOCC4)c3)n2)s1 |

biological target: Cyclin-dependent kinase 9 (Homo sapiens) (UniProt P50750); experiment: Inhibition of CDK9 in human HCT116 cells assessed as decrease in RNAP2 CTD phosphorylation at Ser2 at 1 to 5 uM after 24 hrs by Western blot analysis; type: cell-based; conditions: HCT-116

| inhibition | SMILES |
| --- | --- |
| Active | CNc1nc(C)c(-c2nc(Nc3cccc(C(=O)NC4CCN(C)CC4)c3)ncc2C#N)s1 |

biological target: CDK9/cyclin T1 (Homo sapiens, UniProt P50750); experiment: Inhibition of CDK9/Cyclin T1 (unknown origin) by radiometric assay; type: protein-complex assay; conditions: read-out: Ki(app)
Sequence (O60563 whole entry): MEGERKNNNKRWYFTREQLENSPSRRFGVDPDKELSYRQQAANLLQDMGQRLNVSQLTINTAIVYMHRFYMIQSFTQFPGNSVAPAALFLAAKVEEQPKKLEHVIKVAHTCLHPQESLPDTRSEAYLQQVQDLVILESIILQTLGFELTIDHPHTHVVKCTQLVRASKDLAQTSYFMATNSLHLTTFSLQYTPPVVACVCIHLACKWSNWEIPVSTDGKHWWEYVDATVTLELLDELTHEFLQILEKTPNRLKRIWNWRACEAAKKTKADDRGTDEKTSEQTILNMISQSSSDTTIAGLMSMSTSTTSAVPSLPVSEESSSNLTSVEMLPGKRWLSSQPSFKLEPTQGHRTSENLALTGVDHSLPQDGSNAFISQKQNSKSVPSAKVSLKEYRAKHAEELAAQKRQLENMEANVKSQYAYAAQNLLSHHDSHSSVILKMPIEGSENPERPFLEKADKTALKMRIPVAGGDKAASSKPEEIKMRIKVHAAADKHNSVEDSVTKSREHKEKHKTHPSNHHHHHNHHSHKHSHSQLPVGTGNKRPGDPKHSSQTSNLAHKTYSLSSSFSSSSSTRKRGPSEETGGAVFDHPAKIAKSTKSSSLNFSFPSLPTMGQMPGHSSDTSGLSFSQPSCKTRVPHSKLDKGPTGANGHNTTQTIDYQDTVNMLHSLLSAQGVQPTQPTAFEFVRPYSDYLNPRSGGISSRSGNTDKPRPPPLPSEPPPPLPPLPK
Sequence (P50750 whole entry): as the sequence (P50750 whole entry) above

| Ki | SMILES |
| --- | --- |
| 0.036 µM | CNc1nc(C)c(-c2nc(Nc3cccc(C(=O)NC4CCN(C)CC4)c3)ncc2F)s1 |
| 0.014 µM | CNc1nc(C)c(-c2nc(Nc3cccc(C(=O)NC4CCN(C)CC4)c3)ncc2C#N)s1 |
| 0.095 µM | CNc1nc(C)c(-c2ccnc(Nc3cccc(C(=O)N4CCOCC4)c3)n2)s1 |
| 0.003 µM | CNc1nc(C)c(-c2nc(Nc3cccc(S(=O)(=O)NCCOC)c3)ncc2F)s1 |
| 0.019 µM | CNc1nc(C)c(-c2nc(Nc3cccc(C(=O)N4CCN(C)CC4)c3)ncc2C#N)s1 |
| 0.017 µM | CNc1nc(C)c(-c2nc(Nc3cccc(C(=O)N4CCN(C(C)=O)CC4)c3)ncc2C#N)s1 |
| 0.016 µM | CNc1nc(C)c(-c2nc(Nc3cccc(S(=O)(=O)NCCOC)c3)ncc2C#N)s1 |
| 0.011 µM | Cc1nc(N)sc1-c1nc(Nc2cccc(N3CCN(C)CC3)c2)ncc1F |
| 0.007 µM | CNc1nc(C)c(-c2nc(Nc3cccc(N4CCN(C)CC4)c3)ncc2F)s1 |
| 0.027 µM | CNc1nc(C)c(-c2ccnc(Nc3ccc(C)c(S(=O)(=O)N4CCOCC4)c3)n2)s1 |
| 0.011 µM | CNc1nc(C)c(-c2nc(Nc3ccc(C)c(S(=O)(=O)N4CCOCC4)c3)ncc2F)s1 |
| 0.715 µM | CNc1nc(C)c(-c2nc(Nc3cc(C(=O)N4CCN(C)CC4)ccc3Cl)ncc2C#N)s1 |
| 0.005 µM | CNc1nc(C)c(-c2nc(Nc3cccc(S(C)(=O)=O)c3)ncc2C#N)s1 |
| 0.035 µM | CNc1nc(C)c(-c2nc(Nc3cccc(S(=O)(=O)N4CCN(C)CC4)c3)ncc2C#N)s1 |
| 0.008 µM | CNc1nc(C)c(-c2nc(Nc3ccc(C(=O)NC4CCN(C)CC4)cc3)ncc2C#N)s1 |
| 0.014 µM | CNc1nc(C)c(-c2nc(Nc3cccc(S(=O)(=O)N4CCOCC4)c3)ncc2C#N)s1 |
| 0.011 µM | CC(=O)N1CCN(c2cccc(Nc3ncc(F)c(-c4sc(N)nc4C)n3)c2)CC1 |

biological target: CDK2/Cyclin A2 (Homo sapiens, UniProt P24941); experiment: Inhibition of CDK2/Cyclin A (unknown origin) by radiometric assay; type: protein-complex assay; conditions: read-out: Ki(app)

| Ki | SMILES |
| --- | --- |
| 0.231 µM | CNc1nc(C)c(-c2nc(Nc3cccc(C(=O)NC4CCN(C)CC4)c3)ncc2F)s1 |
| 0.316 µM | CNc1nc(C)c(-c2nc(Nc3cccc(C(=O)NC4CCN(C)CC4)c3)ncc2C#N)s1 |
| 0.485 µM | CNc1nc(C)c(-c2ccnc(Nc3cccc(C(=O)N4CCOCC4)c3)n2)s1 |
| 0.006 µM | CNc1nc(C)c(-c2nc(Nc3cccc(S(=O)(=O)NCCOC)c3)ncc2F)s1 |
| 0.164 µM | CNc1nc(C)c(-c2nc(Nc3cccc(C(=O)N4CCN(C)CC4)c3)ncc2C#N)s1 |
| 0.199 µM | CNc1nc(C)c(-c2nc(Nc3cccc(C(=O)N4CCOCC4)c3)ncc2C#N)s1 |
| 0.134 µM | CNc1nc(C)c(-c2nc(Nc3cccc(C(=O)N4CCN(C(C)=O)CC4)c3)ncc2C#N)s1 |
| 0.022 µM | CNc1nc(C)c(-c2nc(Nc3cccc(S(=O)(=O)NCCOC)c3)ncc2C#N)s1 |
| 0.068 µM | Cc1nc(N)sc1-c1nc(Nc2cccc(N3CCN(C)CC3)c2)ncc1F |
| 0.041 µM | CNc1nc(C)c(-c2nc(Nc3cccc(N4CCN(C)CC4)c3)ncc2F)s1 |
| 0.294 µM | CNc1nc(C)c(-c2ccnc(Nc3ccc(C)c(S(=O)(=O)N4CCOCC4)c3)n2)s1 |
| 0.13 µM | CNc1nc(C)c(-c2nc(Nc3ccc(C)c(S(=O)(=O)N4CCOCC4)c3)ncc2F)s1 |
| > 5 µM | CNc1nc(C)c(-c2nc(Nc3cc(C(=O)N4CCN(C)CC4)ccc3Cl)ncc2C#N)s1 |
| 0.043 µM | CNc1nc(C)c(-c2nc(Nc3cccc(S(C)(=O)=O)c3)ncc2C#N)s1 |
| 0.584 µM | CNc1nc(C)c(-c2nc(Nc3cccc(S(=O)(=O)N4CCN(C)CC4)c3)ncc2C#N)s1 |
| 0.032 µM | CNc1nc(C)c(-c2nc(Nc3ccc(C(=O)NC4CCN(C)CC4)cc3)ncc2C#N)s1 |
| 0.055 µM | CNc1nc(C)c(-c2nc(Nc3cccc(S(=O)(=O)N4CCOCC4)c3)ncc2C#N)s1 |
| 0.077 µM | CC(=O)N1CCN(c2cccc(Nc3ncc(F)c(-c4sc(N)nc4C)n3)c2)CC1 |

biological target: Cyclin-dependent kinase 7/ cyclin H (Homo sapiens, UniProt P50613); experiment: Inhibition of CDK7/Cyclin H (unknown origin) by radiometric assay; type: protein-complex assay; conditions: read-out: Ki(app)
Sequence (P51946 whole entry): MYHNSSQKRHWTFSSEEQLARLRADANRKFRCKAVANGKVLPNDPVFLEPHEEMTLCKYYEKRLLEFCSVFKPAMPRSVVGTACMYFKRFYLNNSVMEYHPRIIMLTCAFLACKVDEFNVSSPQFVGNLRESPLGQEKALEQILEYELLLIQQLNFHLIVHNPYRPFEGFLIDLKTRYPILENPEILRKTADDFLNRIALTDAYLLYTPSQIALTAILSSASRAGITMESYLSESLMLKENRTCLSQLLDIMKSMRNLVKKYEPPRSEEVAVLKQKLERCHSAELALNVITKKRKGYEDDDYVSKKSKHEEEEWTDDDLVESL
Sequence (P50613 whole entry): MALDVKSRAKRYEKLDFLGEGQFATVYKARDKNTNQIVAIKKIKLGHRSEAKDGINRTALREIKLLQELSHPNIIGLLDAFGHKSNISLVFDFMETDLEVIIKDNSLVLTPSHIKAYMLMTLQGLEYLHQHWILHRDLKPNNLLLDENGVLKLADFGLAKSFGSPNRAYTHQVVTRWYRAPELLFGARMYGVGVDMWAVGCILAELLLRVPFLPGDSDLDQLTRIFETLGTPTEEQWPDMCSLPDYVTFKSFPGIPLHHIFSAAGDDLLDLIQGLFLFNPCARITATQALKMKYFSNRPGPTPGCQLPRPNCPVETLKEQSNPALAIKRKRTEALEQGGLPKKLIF

| Ki | SMILES |
| --- | --- |
| 0.542 µM | CNc1nc(C)c(-c2nc(Nc3cccc(C(=O)NC4CCN(C)CC4)c3)ncc2F)s1 |
| 0.163 µM | CNc1nc(C)c(-c2nc(Nc3cccc(C(=O)NC4CCN(C)CC4)c3)ncc2C#N)s1 |
| 0.393 µM | CNc1nc(C)c(-c2ccnc(Nc3cccc(C(=O)N4CCOCC4)c3)n2)s1 |
| 0.03 µM | CNc1nc(C)c(-c2nc(Nc3cccc(S(=O)(=O)NCCOC)c3)ncc2F)s1 |
| 0.84 µM | CNc1nc(C)c(-c2nc(Nc3cccc(C(=O)N4CCN(C)CC4)c3)ncc2C#N)s1 |
| 1.87 µM | CNc1nc(C)c(-c2nc(Nc3cccc(C(=O)N4CCOCC4)c3)ncc2C#N)s1 |
| 0.552 µM | CNc1nc(C)c(-c2nc(Nc3cccc(C(=O)N4CCN(C(C)=O)CC4)c3)ncc2C#N)s1 |
| 0.18 µM | CNc1nc(C)c(-c2nc(Nc3cccc(S(=O)(=O)NCCOC)c3)ncc2C#N)s1 |
| 0.476 µM | Cc1nc(N)sc1-c1nc(Nc2cccc(N3CCN(C)CC3)c2)ncc1F |
| 0.541 µM | CNc1nc(C)c(-c2nc(Nc3cccc(N4CCN(C)CC4)c3)ncc2F)s1 |
| 0.252 µM | Cc1nc(N)sc1-c1nc(Nc2cccc(S(N)(=O)=O)c2)ncc1F |
| 0.15 µM | CNc1nc(C)c(-c2ccnc(Nc3ccc(C)c(S(=O)(=O)N4CCOCC4)c3)n2)s1 |
| 0.133 µM | CNc1nc(C)c(-c2nc(Nc3ccc(C)c(S(=O)(=O)N4CCOCC4)c3)ncc2F)s1 |
| > 5 µM | CNc1nc(C)c(-c2nc(Nc3cc(C(=O)N4CCN(C)CC4)ccc3Cl)ncc2C#N)s1 |
| 0.11 µM | CNc1nc(C)c(-c2nc(Nc3cccc(S(C)(=O)=O)c3)ncc2C#N)s1 |
| 0.024 µM | CNc1nc(C)c(-c2nc(Nc3cccc(S(=O)(=O)N4CCN(C)CC4)c3)ncc2C#N)s1 |
| 0.304 µM | CNc1nc(C)c(-c2nc(Nc3ccc(C(=O)NC4CCN(C)CC4)cc3)ncc2C#N)s1 |
| 0.893 µM | CNc1nc(C)c(-c2nc(Nc3cccc(S(=O)(=O)N4CCOCC4)c3)ncc2C#N)s1 |
| 1.46 µM | CC(=O)N1CCN(c2cccc(Nc3ncc(F)c(-c4sc(N)nc4C)n3)c2)CC1 |

species on record: Homo sapiens; experiment: Selectivity ratio of Ki(app) for CDK7/Cyclin H (unknown origin) to Ki(app) for CDK9/Cyclin T1 (unknown origin); conditions: not given

| Ratio Ki(app) | SMILES |
| --- | --- |
| 43 | CNc1nc(C)c(-c2nc(Nc3cccc(C(=O)N4CCOCC4)c3)ncc2C#N)s1 |
